Experimental data published in patent US20260159474A1, “Aminoindane Compounds and Compositions and Methods of Their Therapeutic Use” (Solvonis Therapeutics Ireland Holdings Limited, priority 2021, published 2026).

System: DA release in rat synaptosomes
Assay: Dopamine release assay in rat striatal synaptosomes
Type: biochemical
Conditions: % of maximal release with 50 μM MDMA, n=2
Method: Methods-Evaluation of Monoamine Release: The potency of therapeutic compounds for stimulating DA release was measured by an endpoint release filtration assay in a 96-well format using rat synaptosomes, essentially as described by Sandtner et al. (Mol Pharmacol., 2016; 89(1):165-75.) and Baumann et al. (Neuropsychopharmacol, 2013; 38:552-562.) with some variations. One male rat was euthanized, and striatum/cortex regions were dissected over ice. The striatum portions were weighed and put in a glass tube containing ice-cold 0.32 M sucrose (dilution 1:24 w/v) for homogenization, while the frontal cortex tissue was diluted in ice-cold 0.32 M sucrose, 1:20 w/v. Tissues were homogenized and centrifuged for 10 mins at 1000×g. The two supernatants from striatum and cortex (crude synaptosomes) were retained on ice until use.
Test compounds were then serially diluted 1:4 in neat DMSO as concentration-response curves (CRC) of 11 points. To each well of a 2-mL 96 deep-well plate (Whatman UNIPLATE 96 well) were added: 2 μL of a concentration-response curve (CRC) of test compounds or 2 μL of DMSO (no-release condition) or 2 μL of MDMA 10 mM solution (final 50 μM, for maximal release), followed by 200 μL/well of complete Krebs-phosphate buffer (126 mM NaCl, 2.4 mM KCl, 0.83 mM CaCl2), 0.8 mM MgCl2, 0.5 mM KH2PO4, 0.5 mM Na2SO4, 11.1 mM glucose, 0.05 mM pargyline, 1 mg/mL ascorbic acid, freshly added, pH 7.4), containing 1 μM reserpine to block vesicular uptake of substrate. Desipramine (100 nM) and citalopram (100 nM) were also added to the release assay buffer in order to inhibit NET and SERT uptake, respectively. The final compound dilution, then, was 1:200 in 0.5% DMSO.
3H-Dopamine was added to the tube containing the crude striatal synaptosomes preparation, diluted 1:20 (v/v) in complete Krebs-phosphate buffer, and was incubated at RT and gently mixed for 60 minutes. Then, 200 μL/well of 3H-DA loaded synaptosomes were dispensed to the compound plate (final 400 μL/well), and the release reaction proceeded for an additional 15 minutes at RT. The release was terminated by vacuum filtration and washing three times with 1 mL of saline solution (NaCl 0.9%) at RT. The retained radioactivity was counted in a scintillation counter after the addition of 50 μL/well Microscint-20.
The raw data (cpm) from residual radioactivity onto the filter were elaborated for the determination of pEC50/EC50 values. Specifically, the compound effect was expressed as the percent of maximal release obtained with 50 μM MDMA (100% release) in comparison to vehicle (0.5% DMSO, 0% release). Both MDMA and D-amphetamine in CRC were used as internal controls in each release experiment. In each plate, for both 0% and 100% of release, the signal window was monitored and Z′ calculations were determined using the raw data of four replicates. 5-HT release was calculated in an identical fashion, except that 5 nM 3H-serotonin was added to crude cortex synaptosomes preparation diluted 1:13 (v/v) in complete Krebs-phosphate buffer containing 1 μM Reserpine, 100 nM GBR12909 and 100 nM nomifensine to block vesicular, DAT, and NET uptake, respectively. Synaptosomes were then loaded with 3H-5HT for 60 minutes at RT. After dispensing loaded synaptosomes onto a compound plate (200 μL/well), the release reaction proceeded for an additional 15 minutes. Stop by filtration, counting, and data elaboration were performed as described for DA release. Compounds were tested in duplicate (n=2).

SMILES | DA Release (pEC50)
COC(=O)c1cc2c(cc1OC)CC(N)C2 (stereo not drawn) [CMP-401] | <4.0
COC(=O)COc1ccc2c(c1)CC(N)C2 (stereo not drawn) [CMP-402] | <4.0
COC(=O)c1ccc2c(c1)CC(N)C2 (stereo not drawn) [CMP-405, 2-aminoindane-5-methylcarboxylate] | 5.6
CNC(C)Cc1ccc2c(c1)OCO2 (stereo not drawn) [MDMA] | 6.6
COc1ccc2c(c1)CC(N)C2 (stereo not drawn) [MEAI, 5-methoxy-2-aminoindane] | 5.4
COc1cc2c(cc1C)CC(N)C2 (stereo not drawn) [MMAI, 5-methoxy-6-methyl-2-aminoindane] | 4.6
